Measured values reported in ChEMBL document CHEMBL1150618, “Isotactic polymethoxydienes from the Philippines sponge Myriastra clavosa” (J Nat Prod, 2002).
pIC50: −log10 of the molar value.

System: HCT-116
Experiment: Cytotoxicity against human HCT116 cells
Format: functional, cell-based

SMILES | pIC50
C=CC[C@@H](C[C@@H](C[C@@H](C[C@@H](C[C@@H](C[C@@H](C[C@@H](C[C@@H](C[C@H](OC)/C(C)=C/CCCCC)OC)OC)OC)OC)OC)OC)OC)OC | 4.07
C=CC[C@@H](C[C@@H](C[C@@H](C[C@@H](C[C@@H](C[C@@H](C[C@@H](C[C@@H](C[C@@H](C[C@H](OC)/C(C)=C/CCCCC)OC)OC)OC)OC)OC)OC)OC)OC)OC | 4.12
C=CC[C@@H](C[C@@H](C[C@@H](C[C@@H](C[C@@H](C[C@@H](C[C@H](OC)/C(C)=C/CCCCC)OC)OC)OC)OC)OC)OC | 3.92
C=CC[C@@H](C[C@@H](C[C@@H](C[C@@H](C[C@@H](C[C@@H](C[C@@H](C[C@H](OC)/C(C)=C/CCCCC)OC)OC)OC)OC)OC)OC)OC | 3.97
C=CC[C@@H](C[C@@H](C[C@@H](C[C@@H](C[C@@H](C[C@@H](C[C@@H](C[C@@H](C[C@@H](C[C@@H](C[C@H](OC)/C(C)=C/CCCCC)OC)OC)OC)OC)OC)OC)OC)OC)OC)OC | 4.04
